Data taken from patent US20260013501A1, “HERBICIDAL DERIVATIVES” (SYNGENTA CROP PROTECTION AG, priority 2022, published 2026).

Legend:
Format in all cases: in vivo
Zea mays (ZEAMX) [1] = experiment: Pre-emergence Test (Table B1), ZEAMX; details: evaluated after 13 days
[2] = tested on: Echinochloa crus-galli (ECHCG); experiment: Pre-emergence Test (Table B1), ECHCG; details: evaluated after 13 days
Setaria faberi (SETFA) [3] = experiment: Pre-emergence Test (Table B1), SETFA; details: evaluated after 13 days
[4] = tested on: Ipomoea hederacea (IPOHE); experiment: Post-emergence Test (Table B2), IPOHE; design: key: five-point scale: 5=81-100%, 4=61-80%, 3=41-60%, 2=21-40%, 1=0-20% damage; details: evaluated after 13 days
Experimental: (§1) Seeds of a variety of test species are sown in standard soil in pots (Ipomoea hederacea (IPOHE), Zea mays (ZEAMX), Echinochloa crus-galli (ECHCG), Amaranthus palmeri (AMAPA), (Amaranthus retoflexus (AMARE), and (Setaria faberi (SETFA)). After 8 days cultivation under controlled conditions in a glasshouse (at 24° C./16° C., day/night; 14 hours light; 65% humidity), the plants are sprayed with an aqueous spray solution derived from the formulation of the technical active ingredient in acetone/water (50:50) solution containing 0.5% Tween 20 (polyoxyethelyene sorbitan monolaurate, CAS RN 9005-64-5). Rate of application is shown in g/ha in the tables below. The test plants are then grown in a glasshouse under controlled conditions in a glasshouse (at 24° C./16° C., day/night; 14 hours light; 65% humidity) and watered twice daily. After 13 days the test is evaluated for the percentage damage caused to the plant. The biological activities are shown in the following table on a five-point scale (5=81-100%; 4=61-80%; 3=41-60%; 2=21-40%; 1=0-20%; -=not tested).

Zea mays (ZEAMX) [5] = experiment: Post-emergence Test (Table B2), ZEAMX; design: key: 5-point damage scale: 5=81-100%, 4=61-80%, 3=41-60%, 2=21-40%, 1=0-20%; details: evaluated after 13 days
How it was run: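 Score: % damage at 13 d on a 5-point scale (5=81-100%; 4=61-80%; 3=41-60%; 2=21-40%; 1=0-20%). Seeds sown in pots, sprayed with test article in acetone/water 50:50 + 0.5% Tween 20; rate in g/ha. Glasshouse 24/16 °C, 14 h light, 65% RH, watered twice daily.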

[6] = tested on: Echinochloa crus-galli (ECHCG); experiment: Post-emergence Test (Table B2), ECHCG; design: key: 5-point damage scale: 5=81-100%, 4=61-80%, 3=41-60%, 2=21-40%, 1=0-20%; details: evaluated after 13 days
Experimental: as §1

[7] = tested on: Ipomoea hederacea (IPOHE); experiment: Pre-emergence Test (Table B1), IPOHE; details: evaluated after 13 days
[8] = tested on: Amaranthus retoflexus (AMARE); experiment: Pre-emergence Test (Table B1), AMARE; details: evaluated after 13 days
[9] = tested on: Amaranthus palmeri (AMAPA); experiment: Post-emergence Test (Table B2), AMAPA; design: key: five-point scale: 5=81-100%, 4=61-80%, 3=41-60%, 2=21-40%, 1=0-20% damage; details: evaluated after 13 days
Experimental: as §1

[10] = tested on: Amaranthus retoflexus (AMARE); experiment: Post-emergence Test (Table B2), AMARE; design: key: five-point scale: 5=81-100%, 4=61-80%, 3=41-60%, 2=21-40%, 1=0-20% damage; details: evaluated after 13 days
Experimental: as §1

Setaria faberi (SETFA) [11] = experiment: Post-emergence Test (Table B2), SETFA; design: key: five-point scale: 5=81-100%, 4=61-80%, 3=41-60%, 2=21-40%, 1=0-20% damage; details: evaluated after 13 days
Experimental: as §1

[12] = tested on: Amaranthus palmeri (AMAPA); experiment: Pre-emergence Test (Table B1), AMAPA; details: Rate 250 g/Ha, evaluated after 13 days

CCn1c(Cc2ccn[nH]c2=O)cc(=O)c(C(=O)O)c1-c1ccc(Cl)c(Cl)c1 [Compound 142, 2-(3,4-dichlorophenyl)-1-ethyl-4-oxo-6-[(6-oxo-1H-pyridazin-5-yl)methyl]pyridine-3-carboxylic acid]
0: Pre-emergence Test, percentage damage caused to the plant (five-point scale), ZEAMX (Zea mays (ZEAMX) [1]; Rate 250 g/Ha) | Pre-emergence Test, percentage damage caused to the plant (five-point scale), ECHCG ([2]; Rate 250 g/Ha) | Pre-emergence Test, percentage damage caused to the plant (five-point scale), SETFA (Setaria faberi (SETFA) [3]; Rate 250 g/Ha)

CCn1c(Cc2cccc(SC)c2)cc(=O)c(C(=O)O)c1-c1ccc(Cl)c(Cl)c1 [Compound 31, 2-(3,4-dichlorophenyl)-1-ethyl-6-[(3-methylsulfanylphenyl)methyl]-4-oxo-pyridine-3-carboxylic acid]
0: percentage damage caused to the plant, IPOHE ([4]; rate 1000 g/Ha) | percentage damage caused to the plant, ZEAMX (Zea mays (ZEAMX) [5]; rate 1000 g/Ha) | percentage damage caused to the plant, ECHCG ([6]; rate 1000 g/Ha)

CCn1c(Cc2ccc(OC)c(OC)c2)cc(=O)c(C(=O)O)c1-c1ccc(Cl)c(Cl)c1 [Compound 34, 2-(3,4-dichlorophenyl)-6-[(3,4-dimethoxyphenyl)meth-yl]-1-ethyl-4-oxo-pyridine-3-carboxylic acid]
0: percentage damage caused to the plant, IPOHE ([4]; rate 1000 g/Ha) | percentage damage caused to the plant, ZEAMX (Zea mays (ZEAMX) [5]; rate 1000 g/Ha) | percentage damage caused to the plant, ECHCG ([6]; rate 1000 g/Ha)

CCn1c(Cc2cccc(OC)c2OC)cc(=O)c(C(=O)O)c1-c1ccc(Cl)c(Cl)c1 [Compound 38, 2-(3,4-dichlorophenyl)-6-[(2,3-dimethoxyphenyl)meth-yl]-1-ethyl-4-oxo-pyridine-3-carboxylic acid]
0: percentage damage caused to the plant, IPOHE ([4]; rate 1000 g/Ha) | percentage damage caused to the plant, ZEAMX (Zea mays (ZEAMX) [5]; rate 1000 g/Ha) | percentage damage caused to the plant, ECHCG ([6]; rate 1000 g/Ha)

CCn1c(Cc2cccc(Cl)n2)cc(=O)c(C(=O)O)c1-c1ccc(OC(C)C)c(Cl)c1 [Compound 132, 2-(3-chloro-4-isopropoxy-phenyl)-6-[(6-chloro-2-pyridyl)methyl]-1-ethyl-4-oxo-pyridine-3-carboxylic acid]
0: Pre-emergence Test, percentage damage caused to the plant (five-point scale), IPOHE ([7]; Rate 250 g/Ha) | Pre-emergence Test, percentage damage caused to the plant (five-point scale), ZEAMX (Zea mays (ZEAMX) [1]; Rate 250 g/Ha) | Pre-emergence Test, percentage damage caused to the plant (five-point scale), ECHCG ([2]; Rate 250 g/Ha) | Pre-emergence Test, percentage damage caused to the plant (five-point scale), AMARE ([8]; Rate 250 g/Ha) | percentage damage caused to the plant, IPOHE ([4]; rate 250 g/Ha) | percentage damage caused to the plant, AMAPA ([9]; rate 250 g/Ha)

CCn1c(Cc2ccccc2Cl)cc(=O)c(C(=O)O)c1-c1ccc(Cl)c(Cl)c1 [Compound 16, 6-[(2-chlorophenyl)methyl]-2-(3,4-dichlorophenyl)-1-ethyl-4-oxo-pyridine-3-carboxylic acid]
0: Pre-emergence Test, percentage damage caused to the plant (five-point scale), IPOHE ([7]; Rate 1000 g/Ha) | Pre-emergence Test, percentage damage caused to the plant (five-point scale), ECHCG ([2]; Rate 1000 g/Ha) | percentage damage caused to the plant, ZEAMX (Zea mays (ZEAMX) [5]; rate 1000 g/Ha) | percentage damage caused to the plant, ECHCG ([6]; rate 1000 g/Ha) | percentage damage caused to the plant, AMAPA ([9]; rate 1000 g/Ha) | percentage damage caused to the plant, AMARE ([10]; rate 1000 g/Ha) | percentage damage caused to the plant, SETFA (Setaria faberi (SETFA) [11]; rate 1000 g/Ha)

CCn1c(Cc2ccc(F)c(C(=O)O)n2)cc(=O)c(C(=O)O)c1-c1ccc(Cl)c(Cl)c1 [Compound 98, 6-[(6-carboxy-5-fluoro-2-pyridyl)methyl]-2-(3,4-dichlorophenyl)-1-ehtyl-4-oxo-pyridine-3-carboxylic acid]
0: Pre-emergence Test, percentage damage caused to the plant (five-point scale), ZEAMX (Zea mays (ZEAMX) [1]; Rate 1000 g/Ha) | percentage damage caused to the plant, IPOHE ([4]; rate 1000 g/Ha) | percentage damage caused to the plant, ZEAMX (Zea mays (ZEAMX) [5]; rate 1000 g/Ha)

CCn1c(Cc2cccc(C(F)(F)F)c2)cc(=O)c(C(=O)O)c1-c1ccc(Cl)c(Cl)c1 [Compound 8, 2-(3,4-dichlorophenyl)-1-ethyl-4-oxo-6-[[3-(trifluoromethyl)phenyl]methyl]pyridine-3-carboxylic acid]
0: percentage damage caused to the plant, ZEAMX (Zea mays (ZEAMX) [5]; rate 250 g/Ha) | percentage damage caused to the plant, ECHCG ([6]; rate 250 g/Ha) | percentage damage caused to the plant, AMAPA ([9]; rate 250 g/Ha) | percentage damage caused to the plant, AMARE ([10]; rate 250 g/Ha) | percentage damage caused to the plant, SETFA (Setaria faberi (SETFA) [11]; rate 250 g/Ha)

CCn1c(Cc2ccc(OC)cc2F)cc(=O)c(C(=O)O)c1-c1ccc(Cl)c(Cl)c1 [Compound 89, 2-(3,4-dichlorophenyl)-1-ethyl-6-[(2-fluoro-4-methoxy-phenyl)methyl]-4-oxo-pyridine-3-carboxylic acid]
0: Pre-emergence Test, percentage damage caused to the plant (five-point scale), IPOHE ([7]; Rate 250 g/Ha) | Pre-emergence Test, percentage damage caused to the plant (five-point scale), ZEAMX (Zea mays (ZEAMX) [1]; Rate 250 g/Ha) | percentage damage caused to the plant, ECHCG ([6]; rate 250 g/Ha) | percentage damage caused to the plant, AMAPA ([9]; rate 250 g/Ha) | percentage damage caused to the plant, AMARE ([10]; rate 250 g/Ha) | percentage damage caused to the plant, SETFA (Setaria faberi (SETFA) [11]; rate 250 g/Ha)

CCn1c(Cc2cccc(C(C)C)c2)cc(=O)c(C(=O)O)c1-c1ccc(Cl)c(Cl)c1 [Compound 23, 2-(3,4-dichlorophenyl)-1-ethyl-6-[(3-isopropylphenyl)methyl]-4-oxo-pyridine-3-carboxylic acid]
0: percentage damage caused to the plant, IPOHE ([4]; rate 1000 g/Ha) | percentage damage caused to the plant, ZEAMX (Zea mays (ZEAMX) [5]; rate 1000 g/Ha) | percentage damage caused to the plant, ECHCG ([6]; rate 1000 g/Ha)

CCn1c(Cc2cccc(OC)n2)cc(=O)c(C(=O)O)c1-c1ccc(Cl)c(Cl)c1 [Compound 60, 2-(3,4-dichlorophenyl)-1-ethyl-6-[(6-methoxy-2-pyridyl)methyl]-4-oxo-pyridine-3-carboxylic acid]
0: Pre-emergence Test, percentage damage caused to the plant (five-point scale), ZEAMX (Zea mays (ZEAMX) [1]; Rate 250 g/Ha) | Pre-emergence Test, percentage damage caused to the plant (five-point scale), SETFA (Setaria faberi (SETFA) [3]; Rate 250 g/Ha)

CCn1c(Cc2cnc3ccccc3n2)cc(=O)c(C(=O)O)c1-c1ccc(Cl)c(Cl)c1 [Compound 145, 2-(3,4-dichlorophenyl)-1-ethyl-4-oxo-6-(quinoxalin-2-ylmethyl)pyridine-3-carboxylic acid]
0: Pre-emergence Test, percentage damage caused to the plant (five-point scale), IPOHE ([7]; Rate 250 g/Ha) | Pre-emergence Test, percentage damage caused to the plant (five-point scale), ZEAMX (Zea mays (ZEAMX) [1]; Rate 250 g/Ha) | Pre-emergence Test, percentage damage caused to the plant (five-point scale), AMARE ([8]; Rate 250 g/Ha) | Pre-emergence Test, percentage damage caused to the plant (five-point scale), SETFA (Setaria faberi (SETFA) [3]; Rate 250 g/Ha)

CCn1c(Cc2ccc(C3CC3)cc2)cc(=O)c(C(=O)O)c1-c1ccc(Cl)c(Cl)c1 [Compound 25, 6-[(4-cyclopropylphenyl)meth-yl]-2-(3,4-dichlorophenyl)-1-ethyl-4-oxo-pyridine-3-carboxylic acid]
0: percentage damage caused to the plant, IPOHE ([4]; rate 1000 g/Ha) | percentage damage caused to the plant, ECHCG ([6]; rate 1000 g/Ha)

CCn1c(Cc2ccccc2OC)cc(=O)c(C(=O)O)c1-c1ccc(Cl)c(Cl)c1 [Compound 24, 2-(3,4-dichlorophenyl)-1-ethyl-6-[(2-methoxyphenyl)methyl]-4-oxo-pyridine-3-carboxylic acid]
0: percentage damage caused to the plant, IPOHE ([4]; rate 1000 g/Ha) | percentage damage caused to the plant, ZEAMX (Zea mays (ZEAMX) [5]; rate 1000 g/Ha) | percentage damage caused to the plant, ECHCG ([6]; rate 1000 g/Ha)

CCn1c(Cc2cc(O)cc(F)n2)cc(=O)c(C(=O)O)c1-c1ccc(Cl)c(Cl)c1 [Compound 104, 2-(3,4-dichlorophenyl)-1-ethyl-6-[(6-fluoro-4-hydroxy-2-pyridyl)methyl]-4-oxo-pyridine-3-carboxylic acid]
0: percentage damage caused to the plant, IPOHE ([4]; rate 1000 g/Ha)

CCn1c(Cc2ccc(Cl)cc2)cc(=O)c(C(=O)O)c1-c1ccc(Cl)c(Cl)c1 [Compound 7, 6-[(4-chlorophenyl)methyl]-2-(3,4-dichlorophenyl)-1-ethyl-4-oxo-pyridine-3-carboxylic acid]
0: Pre-emergence Test, percentage damage caused to the plant (five-point scale), IPOHE ([7]; Rate 1000 g/Ha) | Pre-emergence Test, percentage damage caused to the plant (five-point scale), ZEAMX (Zea mays (ZEAMX) [1]; Rate 1000 g/Ha) | Pre-emergence Test, percentage damage caused to the plant (five-point scale), ECHCG ([2]; Rate 1000 g/Ha) | Pre-emergence Test, percentage damage caused to the plant (five-point scale), AMARE ([8]; Rate 1000 g/Ha) | Pre-emergence Test, percentage damage caused to the plant (five-point scale), SETFA (Setaria faberi (SETFA) [3]; Rate 1000 g/Ha)

CCn1c(Cc2nccnc2Cl)cc(=O)c(C(=O)O)c1-c1ccc(Cl)c(Cl)c1 [Compound 144, 6-[(3-chloropyrazin-2-yl)methyl]-2-(3,4-dichlorophenyl)-1-ethyl-4-oxo-pyridine-3-carboxylic acid]
0: Pre-emergence Test, percentage damage caused to the plant (five-point scale), IPOHE ([7]; Rate 250 g/Ha) | Pre-emergence Test, percentage damage caused to the plant (five-point scale), ZEAMX (Zea mays (ZEAMX) [1]; Rate 250 g/Ha) | Pre-emergence Test, percentage damage caused to the plant (five-point scale), ECHCG ([2]; Rate 250 g/Ha) | Pre-emergence Test, percentage damage caused to the plant (five-point scale), AMAPA [12] | Pre-emergence Test, percentage damage caused to the plant (five-point scale), SETFA (Setaria faberi (SETFA) [3]; Rate 250 g/Ha)
